According to article PMC10615177 (ACS infectious diseases, 2023):
Values after ≈ are worked out from the molar mass of the structure shown. Where two headings read alike, the source gives them in different places.

What was measured:
M. smegmatis = M. smegmatis cell growth inhibition; assay type: cell-based, Mycobacterium smegmatis; conditions: Mycolicibacterium smegmatis, read-out: Ms IC50, M. smegmatis
M. tuberculosis HN878 = M. tuberculosis HN878 growth inhibition; assay type: cell-based, Mycobacterium tuberculosis; conditions: for MIC: HN878, read-out: Mtb HN878 MIC
M. tuberculosis Erdman = M. tuberculosis Erdman growth inhibition; assay type: cell-based, Mycobacterium tuberculosis; conditions: Mycobacterium tuberculosis, ERDMAN, read-out: Mtb Erdman MIC
M. tuberculosis H37Rv = M. tuberculosis H37Rv growth inhibition; assay type: cell-based, Mycobacterium tuberculosis; conditions: Mycobacterium tuberculosis, H37RV, read-out: Mtb H37Rv MIC
Bacillus subtilis = test: B. subtilis growth inhibition; assay type: cell-based; conditions: Bacillus subtilis, read-out: Bs IC50
E. coli = E. coli growth inhibition; assay type: cell-based, Escherichia coli
[1] = test system: T. brucei bloodstream forms; test: T. brucei bloodstream form growth inhibition; assay type: cell-based, Trypanosoma brucei; conditions: Trypanosoma brucei, read-out: T. brucei IC50
[2] = test system: T. cruzi Dm28c epimastigotes; test: T. cruzi epimastigote growth inhibition; assay type: cell-based, Trypanosoma cruzi; conditions: Trypanosoma cruzi, read-out: T. cruzi IC50 (EPI)
[3] = test system: T. cruzi Dm28c intracellular amastigotes; test: T. cruzi intracellular amastigote inhibition; assay type: cell-based, Trypanosoma cruzi; conditions: Trypanosoma cruzi, U2OS, read-out: T. cruzi IC50 (PAR)
[4] = test system: L. donovani promastigotes; test: L. donovani promastigote growth inhibition; assay type: cell-based, Leishmania donovani; conditions: Leishmania donovani, read-out: L. donovani IC50
in vitro [5] = conditions: human
[6] = test system: M. abscessus smooth variant; test: microbe, parasite or virus in culture; assay type: cell-based; conditions: Mycobacteroides abscessus, read-out: Ma(S) MIC
[7] = test system: M. abscessus rough variant; test: microbe, parasite or virus in culture; assay type: cell-based; conditions: Mycobacteroides abscessus, read-out: Ma(R) MIC
[8] = test system: Plasmodium falciparum asexual blood stages; test: P. falciparum asexual blood stage; assay type: cell-based
[9] = molecular target: M. tuberculosis MmpL3 (MtMmpL3) (Mycobacterium tuberculosis, UniProt P9WJV5); test: Surface plasmon resonance binding to MmpL3
M. tuberculosis MmpL3 (MtMmpL3), sequence (P9WJV5 whole entry): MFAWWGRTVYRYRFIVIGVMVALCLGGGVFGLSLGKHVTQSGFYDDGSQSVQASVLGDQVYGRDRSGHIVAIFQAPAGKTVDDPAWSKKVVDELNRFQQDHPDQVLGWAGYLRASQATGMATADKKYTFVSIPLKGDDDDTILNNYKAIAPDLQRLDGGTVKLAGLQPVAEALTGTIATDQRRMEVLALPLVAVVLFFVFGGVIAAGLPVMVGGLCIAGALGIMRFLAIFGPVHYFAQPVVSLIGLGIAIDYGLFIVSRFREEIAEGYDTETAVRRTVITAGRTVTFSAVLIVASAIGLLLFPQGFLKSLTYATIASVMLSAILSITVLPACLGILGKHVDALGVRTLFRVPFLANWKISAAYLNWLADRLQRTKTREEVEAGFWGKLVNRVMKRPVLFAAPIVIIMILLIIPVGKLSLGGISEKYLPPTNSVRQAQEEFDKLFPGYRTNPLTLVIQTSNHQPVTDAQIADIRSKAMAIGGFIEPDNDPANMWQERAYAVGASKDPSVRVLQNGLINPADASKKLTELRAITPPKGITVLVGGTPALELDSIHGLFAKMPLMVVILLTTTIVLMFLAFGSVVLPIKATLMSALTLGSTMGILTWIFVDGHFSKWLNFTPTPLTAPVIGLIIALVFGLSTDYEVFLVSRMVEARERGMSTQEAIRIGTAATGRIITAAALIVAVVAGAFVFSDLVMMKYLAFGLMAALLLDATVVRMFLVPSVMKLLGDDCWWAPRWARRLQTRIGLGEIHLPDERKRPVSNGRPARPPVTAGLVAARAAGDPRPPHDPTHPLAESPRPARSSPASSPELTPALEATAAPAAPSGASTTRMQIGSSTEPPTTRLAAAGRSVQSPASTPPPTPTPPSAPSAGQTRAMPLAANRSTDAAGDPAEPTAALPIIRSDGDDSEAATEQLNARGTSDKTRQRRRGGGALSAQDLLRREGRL

[10] = DSC of DMPC bilayers with inhibitor; assay type: physicochemical
[11] = DSC of DSPG bilayers with inhibitor; assay type: physicochemical
in vitro [12] = conditions: human; remark: listed apart in the source
[13] = Mycobacterium tuberculosis, HN878, read-out: Mtb HN878 IC50, dose-response curves
[14] = 10 wt % inhibitor, PBS pH 7.4, heating

Compound: CCC1(NC(=O)CNCC=C(C)CCC=C(C)C)C2CC3CC(C2)CC1C3 (stereo not shown) [Compound 7c, 2-((3,7-Dimethylocta-2,6-dien-1-yl)amino)-N-(2-ethyladamantan-2-yl)acetamide]
- IC50 (M. smegmatis): 7.7 µM
- IC50 (M. tuberculosis HN878; [13]): 6.6 ± 0.2 µM
- MIC (M. tuberculosis HN878; Mycobacterium tuberculosis): 6.25 µM (≈ 2.33 µg/mL)
- MIC (M. tuberculosis Erdman): 16 µM (≈ 5.96 µg/mL)
- MIC (M. tuberculosis H37Rv): 16 µM (≈ 5.96 µg/mL)
- IC50 (Bacillus subtilis): 1.9 µM
- Ec IC50 (E. coli): No inhibition
- IC50 [1]: 3.9 ± 0.3 µM
- IC50 [2]: 14 ± 0.04 µM
- IC50 [3]: 3.2 ± 0.2 µM
- IC50 [4]: 44 ± 11 µM
- CC50 (in vitro [5]): 7.5 ± 0.6 µM

Compound: CCCCC1(NC(=O)CNCC=C(C)CCC=C(C)C)C2CC3CC(C2)CC1C3 (stereo not shown) [Compound 7e, 2-((3,7-Dimethylocta-2,6-dien-1-yl)amino)-N-(2-butyladamantan-2-yl)acetamide]
- IC50 (M. smegmatis): 17 µM
- IC50 (M. tuberculosis HN878; [13]): 13 ± 0.3 µM
- MIC (M. tuberculosis HN878; Mycobacterium tuberculosis): 12.5 µM (≈ 5.01 µg/mL)
- MIC (M. tuberculosis Erdman): 15 µM (≈ 6.01 µg/mL)
- MIC (M. tuberculosis H37Rv): 15 µM (≈ 6.01 µg/mL)
- IC50 (Bacillus subtilis): 2.8 µM
- Ec IC50 (E. coli): No inhibition
- IC50 [1]: 3 ± 0.2 µM
- IC50 [2]: 48 ± 0.07 µM
- IC50 [3]: 8.8 ± 1.3 µM
- IC50 [4]: 25 ± 14 µM
- CC50 (in vitro [5]): 15 ± 0.5 µM

Compound: CC(C)=CCCC(C)=CCNCC(=O)NC1(Cc2ccccc2)C2CC3CC(C2)CC1C3 (stereo not shown) [Compound 7g, 2-((3,7-Dimethylocta-2,6-dien-1-yl)amino)-N-(2-benzyladamantan-2-yl)acetamide]
- IC50 (M. smegmatis): 17 µM
- MIC (M. tuberculosis Erdman): 29 µM (≈ 12.6 µg/mL)
- MIC (M. tuberculosis H37Rv): 29 µM (≈ 12.6 µg/mL)
- IC50 (Bacillus subtilis): 2.3 µM
- Ec IC50 (E. coli): No inhibition
- IC50 [1]: 5.6 ± 1 µM
- IC50 [2]: 17 ± 4 µM
- IC50 [3]: 2.9 ± 0.3 µM
- IC50 [4]: 27 ± 0.8 µM
- CC50 (in vitro [5]): 7 ± 0.2 µM

Compound: CC(C)=CCCC(C)=CCNCC(=O)NC1(c2ccccc2)C2CC3CC(C2)CC1C3 (stereo not shown) [Compound 7h, 2-((3,7-Dimethylocta-2,6-dien-1-yl)amino)-N-(2-phenyladamantan-2-yl)acetamide]
- IC50 (M. smegmatis): 26 µM
- MIC (M. tuberculosis Erdman): 38 µM (≈ 16 µg/mL)
- MIC (M. tuberculosis H37Rv): 38 µM (≈ 16 µg/mL)
- IC50 (Bacillus subtilis): 4.5 µM
- Ec IC50 (E. coli): No inhibition
- IC50 [1]: 4.1 ± 0.6 µM
- IC50 [2]: 18 ± 2 µM
- IC50 [3]: 3.4 ± 0.2 µM
- IC50 [4]: 26 ± 28 µM
- CC50 (in vitro [5]): 7 ± 0.4 µM

Compound: CCC1(NCCNCC=C(C)CCC=C(C)C)C2CC3CC(C2)CC1C3 (stereo not shown) [Compound 8c, N-(3,7-dimethylocta-2,6-dien-1-yl)-N′-(2-ethyladamantan-2-yl)ethane-1,2-diamine]
- IC50 (M. smegmatis): 4 µM
- IC50 (M. tuberculosis HN878; [13]): 2 to 3 µM
- MIC (M. tuberculosis HN878; Mycobacterium tuberculosis): 1.6 µM (≈ 0.574 µg/mL)
- IC50 (M. tuberculosis HN878; read-out: Mtb HN878 IC50, dose-response curves): 1.9 ± 0.06 µM
- MIC (M. tuberculosis Erdman): 6.8 µM (≈ 2.44 µg/mL)
- MIC (M. tuberculosis H37Rv): 6.8 µM (≈ 2.44 µg/mL)
- MIC [6]: 22 µM (≈ 7.89 µg/mL)
- MIC [7]: 10.7 µM (≈ 3.84 µg/mL)
- IC50 (Bacillus subtilis): 4.3 µM
- IC50 (E. coli; Escherichia coli, read-out: Ec IC50): 18 µM
- IC50 [1]: 1.4 ± 0.2 µM
- IC50 [2]: 8 ± 2 µM
- IC50 [3]: 1.3 ± 0.06 µM
- IC50 [4]: 2.1 ± 0.4 µM
- IC50 ([8]; Plasmodium falciparum, read-out: PfABS IC50 (μM ± S.E.), asexual blood stages): 0.16 ± 0.07 µM
- Increased potency against PfABS compared to SQ109 ([8]; versus SQ109 1.6 μM): ~ 10 fold
- koff [9]: 0.841 s⁻¹
- kon [9]: 4710 M⁻¹ s⁻¹
- Kd ([9]; 1:1 model, 1:1 binding model, from ratio of rate constants): 180 µM
- Kd ([9]; 2-state, two-state model, from rate constants): 190 µM
- ka1 ([9]; two-state model): 5473 M⁻¹ s⁻¹
- ka2 ([9]; two-state model): 0.006994 s⁻¹
- kd1 ([9]; two-state model): 1.284 s⁻¹
- kd2 ([9]; two-state model): 0.03012 s⁻¹
- Tm (main transition) [10, 14]: 16.9 °C
- ΔH [10, 14]: 5.74 kcal/mol
- ΔT1/2 [10, 14]: 2.0 °C
- Decrease of Tm compared to DMPC without inhibitor ([10]; heating): ~6.6 °C
- Tm (main transition) [11, 14]: 51.9 °C
- ΔH [11, 14]: 11.9 kcal/mol
- ΔT1/2 [11, 14]: 2.5 °C
- Broadening of main transition peak ΔΤ1/2 compared to pure DSPG ([11]; heating): 0.2–1.6 °C
- CC50 (in vitro [5]): 2.5 ± 0.3 µM
- viability at 2 µM (in vitro [12]): 85%
- viability at 20 µM (in vitro [12]): 43%
